According to article PMC8724172, “The effect of potent CYP2D6 inhibition on the pharmacokinetics and safety of deutetrabenazine in healthy volunteers” (European Journal of Clinical Pharmacology, 2021):

Assay: Open-label sequential drug-drug interaction study: plasma pharmacokinetics of deutetrabenazine and its metabolites without and with steady-state paroxetine
Design: AUC0−t lower by a factor in presence of paroxetine / Cmax lower by a factor in presence of paroxetine: unit not given beside the values
Settings: in vivo
Text: This was an open-label sequential drug-drug interaction study in 24 healthy adult subjects who were CYP2D6 extensive metabolizers (EM) or CYP2D6 intermediate metabolizers (IM); Supplemental Table S1 provides the genotypes and phenotypes of the subjects.
Subjects checked into the clinic on day 1 and were confined through day 14. […] Those who met inclusion/exclusion criteria received a single dose of deutetrabenazine on day 1 followed by a 72-h washout. Subjects then received paroxetine on days 4 to 12 to achieve steady-state plasma concentrations of paroxetine by day 11. On day 11, another single dose of deutetrabenazine was administered. Triplicate 12-lead digital electrocardiograms (ECGs) were collected predose and for 10 h following deutetrabenazine dosing on day 1, and for 10 h on day 11, following paroxetine administration on day 10. Blood samples for measurement of plasma concentrations of deutetrabenazine and its metabolites were obtained on days 1 and 11 (predose, 1, 2, 2.5, 3, 3.5, 4, 4.5, 5, 6, 7, 8, 10, 12, and 16 h), days 2 and 12, at 24 and 36 h, days 3 and 13, at 48 and 60 h and days 4 and 14, at 72 h. Paroxetine trough levels were obtained pre-dose on days 9, 10, 11, and 12, and on day 13 at 24 h post the final paroxetine dose on day 12. Blood and urine samples were collected for clinical laboratory testing (hematology, serum chemistries, and urinalysis) at admission and after at least 10 h fasting and at study completion on day 14 or upon early withdrawal.
All participants received the following treatments, deutetrabenazine 22.5-mg oral dose as one 15-mg tablet + one 7.5-mg tablet on days 1 and 11 and one paroxetine 20 mg (Cadila Healthcare Ltd.) oral tablet on days 4 through 12. The deutetrabenazine 22.5-mg dose was administered with 237 mL of water in the morning approximately 30 min after a standardized breakfast meal with moderate fat content (35%). No food was allowed for at least 4 h postdose, and subjects were asked to remain upright for at least 4 h postdose, unless medically necessary.
Paroxetine 20 mg was administered in the morning with 237 mL water for 9 days (days 4 to 12) to ensure steady-state levels. On days 4 to 10 and 12, the paroxetine dose was administered in a fed state 30 min after breakfast. On day 11, as paroxetine can be administered without regard to food, subjects took the paroxetine dose under fasting conditions (at least 1 h prior to breakfast and 1.5 h prior to deutetrabenazine administration) following an overnight fast of at least 10 h. Subjects were asked to remain upright for at least 1 h after the paroxetine dose, unless medically necessary.
Validated liquid chromatography/tandem mass spectrometry methods were applied to assess plasma concentrations of paroxetine, deutetrabenazine, α- and β-HTBZ metabolites, and the O-desmethyl metabolites of α- and β-HTBZ. This was performed on a Sciex API 4000 instrument, equipped with a Turbo Ion Spray ion source operated in the positive ion mode and interfaced to a Shimadzu HPLC system fitted with a Waters XBridge C18 reverse phase column (3.5 µm; 50 × 2.1 mm) for paroxetine, deutetrabenazine, α-HTBZ and β-HTBZ or a Phenomenex Kinetex column (2.6 µm; 100 × 2.1 mm) for the O-desmethyl metabolites. The validated assay ranges were as follows: paroxetine 0.500 to 50.0 ng/mL, deutetrabenazine 0.100 to 10.0 ng/mL, deuterated α- and β-HTBZ 0.500 to 100 ng/mL, and 9-O- and 10-O-desmethyl metabolites of α-HTBZ and β-HTBZ 0.5 to 50.0 ng/mL. The methods were developed and validated by CPR Pharma Services, Pty, Ltd Australia, as described earlier.
Plasma concentrations, below the limit of quantitation (BLQ) of the assay, were designated a value of zero for initial and time points occurring at the end of the profile. For sampling time points between two quantifiable concentrations, plasma concentrations BLQ followed by a measurable concentration were set to the limit of quantitation of the assay.

Row | Cmax (human) | AUC0-t (human, im) | Cmax (human, im) | Tmax (human, im) | Cmax (human, po, 22.5 mg) | AUC0−t lower by a factor in presence of paroxetine | Cmax lower by a factor in presence of paroxetine | t1/2 (human, im) | Quantifiability of plasma concentrations | SMILES
1 | 1.4 (18) ng/mL | 13.8 (65) ng × h/mL | 1.2 (45) ng/mL | 5.5 (3.5–12.0) h | 1.3 (28) ng/mL | 0.3 | 0.4 |  |  | COc1cc2c(cc1O)CCN1C[C@@H](CC(C)C)[C@H](O)C[C@H]21 [9-O-desmethyl α-HTBZ]
2 | 4.5 (20) ng/mL | 105 (33) ng × h/mL | 4.2 (45) ng/mL | 7.0 (4.0–24.0) h | 4.4 (29) ng/mL | 0.7 | 0.4 | 16.8 (13) (n = 7) h |  | COc1cc2c(cc1O)CCN1C[C@@H](CC(C)C)[C@@H](O)C[C@H]21 [9-O-desmethyl β-HTBZ]
3 |  |  |  |  |  |  |  |  | appeared transiently in some subjects | COc1cc2c(cc1O)[C@H]1C[C@H](O)[C@H](CC(C)C)CN1CC2 [10-O-desmethyl β-HTBZ]
